Results: publication PMC5951806, “Rapid labelling and covalent inhibition of intracellular native proteins using ligand-directed N-acyl-N-alkyl sulfonamide” (Nature Communications, 2018)

How the values were obtained:
[1] = target: glyceraldehyde-3-phosphate dehydrogenase (GAPDH) (Homo sapiens, UniProt P04406); test: TMT LC-MSMS of 11-labelled proteins; type: cell-based
[2] = target: L-lactate dehydrogenase B chain (LDHB) (Homo sapiens, UniProt P07195); test: TMT LC-MSMS of 11-labelled proteins; type: cell-based
[3] = sheet Exp1, SKBR3 cells, 11 0.5 µM 3 h vs DMSO
[4] = sheet Exp1, SKBR3 cells, 11 0.5 µM 3 h vs with PU-H71 10 µM
[5] = sheet Merged, SKBR3 cells, 11 0.5 µM 3 h vs DMSO
[6] = sheet Merged, SKBR3 cells, 11 0.5 µM 3 h vs with PU-H71 10 µM

Sequence of L-lactate dehydrogenase B chain (LDHB) (P07195 whole entry): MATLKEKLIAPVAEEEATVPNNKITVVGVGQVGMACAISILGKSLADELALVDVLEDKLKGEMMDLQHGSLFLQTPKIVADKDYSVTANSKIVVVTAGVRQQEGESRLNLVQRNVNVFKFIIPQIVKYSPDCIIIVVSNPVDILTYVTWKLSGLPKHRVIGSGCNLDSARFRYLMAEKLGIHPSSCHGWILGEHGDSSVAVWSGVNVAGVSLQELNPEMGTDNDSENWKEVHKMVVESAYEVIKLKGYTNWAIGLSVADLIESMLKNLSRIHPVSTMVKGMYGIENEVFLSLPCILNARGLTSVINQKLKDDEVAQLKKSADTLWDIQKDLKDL
Sequence of glyceraldehyde-3-phosphate dehydrogenase (GAPDH) (P04406 whole entry): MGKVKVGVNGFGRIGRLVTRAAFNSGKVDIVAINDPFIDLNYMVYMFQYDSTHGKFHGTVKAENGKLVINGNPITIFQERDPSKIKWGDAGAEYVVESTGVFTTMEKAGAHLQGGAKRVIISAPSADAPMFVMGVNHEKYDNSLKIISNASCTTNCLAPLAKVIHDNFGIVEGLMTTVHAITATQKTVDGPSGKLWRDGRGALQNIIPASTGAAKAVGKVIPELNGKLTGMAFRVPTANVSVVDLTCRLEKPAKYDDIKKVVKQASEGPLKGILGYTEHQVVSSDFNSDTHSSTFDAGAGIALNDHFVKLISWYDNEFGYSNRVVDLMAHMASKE

Structure (SMILES): CC(=O)Oc1ccc2c(c1)Oc1cc(OC(C)=O)ccc1C21OC(=O)c2cc(C(=O)NCCOCCOCCNC(=O)CCCC(=O)N(CC#N)S(=O)(=O)c3ccc(C(=O)NCCCn4c(Sc5cc6c(cc5I)OCO6)nc5c(N)ncnc54)cc3)ccc21 [compound 11]
- Abundance Ratio: (11) / (11 with PU-H71) ([1]; Exp3, GAPDH): 0.73
- Abundance Ratio: (11) / (DMSO) ([1]; Exp3, GAPDH): 1.944
- Abundances (Grouped): 11 ([1]; Exp3, GAPDH): 248.2
- Abundances (Grouped): 11 with PU-H71 ([1]; Exp3, GAPDH): 340
- Abundance Ratio: (11) / (DMSO) [1, 3]: 2.11
- Abundance Ratio: (11) / (11 with PU-H71) [1, 4]: 0.674
- Abundance Ratio: (11) / (11 with PU-H71) ([1]; sheet Exp2, GAPDH): 0.789
- Abundance Ratio: (11) / (DMSO) ([1]; sheet Exp2, GAPDH): 3.189
- Abundances (Grouped): 11 ([1]; sheet Exp2, GAPDH): 133
- Abundances (Grouped): 11 with PU-H71 ([1]; sheet Exp2, GAPDH): 168.6
- Abundance Ratio: (11) / (DMSO) [1, 5]: 2.267
- Abundance Ratio: (11) / (11 with PU-H71) [1, 6]: 0.732
- Abundance Ratio: (11) / (DMSO) [2, 3]: 3.283
- Abundance Ratio: (11) / (11 with PU-H71) [2, 4]: 0.769
- Abundance Ratio: (11) / (11 with PU-H71) ([2]; sheet Exp2, LDHB): 0.731
- Abundance Ratio: (11) / (DMSO) ([2]; sheet Exp2, LDHB): 3.172
- Abundances (Grouped): 11 ([2]; sheet Exp2, LDHB): 66.3
- Abundances (Grouped): 11 with PU-H71 ([2]; sheet Exp2, LDHB, with PU-H71): 90.7
- Abundance Ratio: (11) / (DMSO) [2, 5]: 3.227
- Abundance Ratio: (11) / (11 with PU-H71) [2, 6]: 0.75
